US20250114345A1, “COMPOUNDS AND COMPOSITIONS AS CBP/P300 DEGRADERS AND USES THEREOF” (Oncopia Therapeutics, Inc. d/b/a/ SK Life Science Labs, priority 2023, published 2025)

Molecular target: T1, p300 (Homo sapiens, UniProt Q09472)
T1 construct: host or cells: A549 P300 HiBit cells
Assay: P300 degradation, HiBit technology in A549 P300 HiBit cells (2 h)
Type: cell-based
Conditions: 2 hrs post treatment; for Dmax: A549, A549 P300 HiBit cells; for DC50: A549 P300 HiBit cells
Experimental: p300 and CBP degradation potency and Dmax were determined using in cell western (ICW) assay technology in H1299 cells or HiBit technology in A549 HiBit cells.
A549 P300 HiBit and A549 CBP HiBit cells were plated in separate 384-well, TC treated, white-opaque, flat-bottomed microplate. Cells were plated at a cell density of 0.2×10^4 cells per well in assay media comprised of F-12K, 10% heat inactivated FBS, and 1% penicillin/streptomycin. Assay microplates containing HiBit cells were placed in a 37° C., 5% CO2, tissue culture incubator and left to equilibrate overnight. The next day cells were treated with serial dilutions of test compound made up of 10 mM stock solutions in DMSO. 384-Well plates containing treated cells were then placed back into a 37° C., 5% CO2, tissue culture incubator. Assay microplates containing A549 P300 HiBit cells were incubated for 2 hrs post treatment before P300 destruction was assessed, while microplates containing A549 CBP HiBit cells were incubated for 24 hrs post treatment before CBP destruction was determined. On the day of each assay time point, microplates were removed from the tissue culture incubator and prepared HiBit Lytic detection buffer (Promega, cat #N3O40) was added to each plate. Plates were covered with aluminum foil and incubated for ten minutes at room temperature on an orbital shaker. After incubation, luminescent signal of each plate was measured using the Envision instrument (Perkin Elmer).

T1 sequence (Q09472 whole entry): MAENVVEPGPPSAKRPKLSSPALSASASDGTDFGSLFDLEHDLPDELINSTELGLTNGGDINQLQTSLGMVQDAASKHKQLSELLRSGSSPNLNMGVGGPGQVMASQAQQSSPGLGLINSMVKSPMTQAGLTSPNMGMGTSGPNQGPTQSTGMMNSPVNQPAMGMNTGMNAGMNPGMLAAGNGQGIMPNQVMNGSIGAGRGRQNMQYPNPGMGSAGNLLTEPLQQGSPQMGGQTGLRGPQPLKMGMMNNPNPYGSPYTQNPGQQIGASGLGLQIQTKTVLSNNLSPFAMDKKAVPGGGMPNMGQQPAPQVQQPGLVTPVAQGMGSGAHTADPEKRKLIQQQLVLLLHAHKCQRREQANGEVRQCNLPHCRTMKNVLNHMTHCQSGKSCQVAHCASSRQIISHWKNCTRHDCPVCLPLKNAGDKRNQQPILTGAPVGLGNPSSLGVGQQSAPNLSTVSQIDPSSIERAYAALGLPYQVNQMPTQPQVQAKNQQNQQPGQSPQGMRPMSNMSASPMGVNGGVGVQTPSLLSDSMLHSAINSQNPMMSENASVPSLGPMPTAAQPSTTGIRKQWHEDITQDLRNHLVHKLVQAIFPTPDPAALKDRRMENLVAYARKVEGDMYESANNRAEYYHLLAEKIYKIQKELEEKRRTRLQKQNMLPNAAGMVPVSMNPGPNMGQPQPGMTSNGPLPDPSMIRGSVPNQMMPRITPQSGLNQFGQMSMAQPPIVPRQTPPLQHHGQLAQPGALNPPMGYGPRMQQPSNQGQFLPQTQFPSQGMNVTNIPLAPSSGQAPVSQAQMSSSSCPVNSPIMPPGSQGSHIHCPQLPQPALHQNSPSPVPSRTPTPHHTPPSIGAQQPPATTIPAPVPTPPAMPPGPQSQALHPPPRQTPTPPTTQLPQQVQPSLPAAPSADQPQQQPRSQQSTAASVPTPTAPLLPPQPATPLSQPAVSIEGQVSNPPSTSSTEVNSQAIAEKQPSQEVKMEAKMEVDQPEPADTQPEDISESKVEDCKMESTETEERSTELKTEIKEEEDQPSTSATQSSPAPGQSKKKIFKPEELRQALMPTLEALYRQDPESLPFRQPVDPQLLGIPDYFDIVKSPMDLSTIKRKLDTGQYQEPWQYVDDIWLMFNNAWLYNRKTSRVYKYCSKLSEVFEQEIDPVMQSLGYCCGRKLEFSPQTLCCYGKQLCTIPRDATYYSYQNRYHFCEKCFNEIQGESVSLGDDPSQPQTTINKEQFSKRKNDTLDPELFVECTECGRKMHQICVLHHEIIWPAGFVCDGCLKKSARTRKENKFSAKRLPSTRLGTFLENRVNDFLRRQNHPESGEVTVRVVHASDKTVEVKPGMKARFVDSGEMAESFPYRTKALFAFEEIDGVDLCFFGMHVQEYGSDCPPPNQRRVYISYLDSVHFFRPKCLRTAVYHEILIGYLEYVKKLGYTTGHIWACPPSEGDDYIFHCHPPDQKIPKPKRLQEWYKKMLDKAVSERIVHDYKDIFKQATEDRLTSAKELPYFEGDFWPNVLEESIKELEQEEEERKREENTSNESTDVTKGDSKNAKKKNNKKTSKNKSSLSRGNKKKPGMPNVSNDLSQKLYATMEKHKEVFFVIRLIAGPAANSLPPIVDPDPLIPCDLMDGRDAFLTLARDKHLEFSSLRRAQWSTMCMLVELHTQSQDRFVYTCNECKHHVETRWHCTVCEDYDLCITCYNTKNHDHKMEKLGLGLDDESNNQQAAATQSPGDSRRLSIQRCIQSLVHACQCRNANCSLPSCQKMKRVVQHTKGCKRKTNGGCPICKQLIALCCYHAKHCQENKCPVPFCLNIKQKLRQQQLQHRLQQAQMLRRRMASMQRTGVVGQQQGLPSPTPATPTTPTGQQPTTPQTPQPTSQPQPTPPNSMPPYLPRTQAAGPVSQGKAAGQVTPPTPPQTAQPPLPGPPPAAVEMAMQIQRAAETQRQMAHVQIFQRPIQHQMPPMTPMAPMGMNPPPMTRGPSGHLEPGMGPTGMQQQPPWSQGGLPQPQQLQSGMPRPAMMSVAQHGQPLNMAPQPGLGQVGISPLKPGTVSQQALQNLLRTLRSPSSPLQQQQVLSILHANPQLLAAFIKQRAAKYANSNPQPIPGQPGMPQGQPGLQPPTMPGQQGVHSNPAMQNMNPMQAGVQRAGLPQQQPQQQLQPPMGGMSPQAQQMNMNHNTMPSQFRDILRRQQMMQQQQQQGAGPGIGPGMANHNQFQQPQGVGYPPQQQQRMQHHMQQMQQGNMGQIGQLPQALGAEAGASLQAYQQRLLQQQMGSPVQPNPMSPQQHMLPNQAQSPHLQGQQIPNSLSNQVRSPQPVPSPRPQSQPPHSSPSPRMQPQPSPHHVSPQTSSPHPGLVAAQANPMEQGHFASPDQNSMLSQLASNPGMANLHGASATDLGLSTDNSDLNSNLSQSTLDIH

Row | Dmax [%] | DC50 [nM] | Compound
1 | 20 to 39 | 1 to 9.9 | COc1cc(-c2cnc(C(=O)NCC#Cc3cc4c(C5CCC(=O)NC5=O)cccc4o3)c(C)c2)ncc1N(C)c1cc(C2CCOCC2)c2c(c1)n(C)c(=O)n2C (stereo not shown) [Example A166, 5-((1,3-dimethyl-2-oxo-7-(tetrahydro-2H-pyran-4-yl)-2,3-dihydro-1H-benzo[d]imidazol-5-yl)(methyl)amino)-N-(3-(4-(2,6-dioxopiperidin-3-yl)benzofuran-2-yl)prop-2-yn-1-yl)-4-methoxy-5′-methyl-[2,3′-bipyridine]-6′-carboxamide]
2 | > 80 | 1 to 9.9 | CC(C)c1cc(-c2cccc3cc(-c4ccc(C(=O)NCC#Cc5cc6c(c(NC7CCC(=O)NC7=O)c5)OCC6)nc4)ncc23)cc2c1n(C)c(=O)n2C (stereo not shown) [Example A32, N-(3-(7-((2,6-Dioxopiperidin-3-yl)amino)-2,3-dihydrobenzofuran-5-yl)prop-2-yn-1-yl)-5-(8-(7-isopropyl-1,3-dimethyl-2-oxo-2,3-dihydro-1H-benzo[d]imidazol-5-yl)isoquinolin-3-yl)picolinamide]
3 | > 80 | 1 to 9.9 | CC(C)c1cc(N2CCOc3cc(-c4ccc(C(=O)NCC#Cc5ccc6occ(C7CCC(=O)NC7=O)c6c5)nc4)c(C#N)cc32)cc2c1n(C)c(=O)n2C (stereo not shown) [Example A134, 5-(6-cyano-4-(7-iso-propyl-1,3-dimethyl-2-oxo-2,3-dihydro-1H-benzo[d]imidazol-5-yl)-3,4-dihydro-2H-benzo[b][1,4]oxazin-7-yl)-N-(3-(3-(2,6-dioxopiperidin-3-yl)benzofuran-5-yl)prop-2-yn-1-yl)picolinamide]
4 | 60 to 79 | 1 to 9.9 | Cc1cc(-c2cc(F)c(Nc3cc(C4CCOCC4)c4c(c3)n(C)c(=O)n4C)cc2C(F)F)cnc1C(=O)NCC#Cc1cc2c(C3CCC(=O)NC3=O)cccc2o1 (stereo not shown) [Example A257, 5-(2-(difluoromethyl)-4-((1,3-dimethyl-2-oxo-7-(tetrahydro-2H-pyran-4-yl)-2,3-dihydro-1H-benzo [d]imidazol-5-yl)amino)-5-fluoro-phenyl)-N-(3-(4-(2,6-dioxopiperidin-3-yl)benzofuran-2-yl)prop-2-yn-1-yl)-3-methylpicolinamide]
5 | < 20 | 1 to 9.9 | Cc1cc(-c2ncc(N(C)c3cc(C4CCOCC4)c4c(c3)n(C)c(=O)n4C)nn2)cnc1C(=O)NCC#Cc1ccc2occ(C3CCC(=O)NC3=O)c2c1 (stereo not shown) [Example A90, 5-(6-((1,3-dimethyl-2-oxo-7-(tetrahydro-2H-pyran-4-yl)-2,3-dihydro-1H-benzo[d]imidazol-5-yl)(methyl)amino)-1,2,4-triazin-3-yl)-N-(3-(3-(2,6-dioxopiperidin-3-yl)benzofuran-5-yl)prop-2-yn-1-yl)-3-methylpicolinamide]
6 | 60 to 79 | 1 to 9.9 | Cn1c(=O)n(C)c2c(C3CCS(=O)(=O)CC3)nc(-c3cccc4cc(-c5ccc(C(=O)NCC#Cc6ccc7occ(C8CCC(=O)NC8=O)c7c6)nc5)ncc34)cc21 (stereo not shown) [Example A123, 5-(8-(4-(1,1-dioxido-tetrahydro-2H-thiopyran-4-yl)-1,3-dimethyl-2-oxo-2,3-dihydro-1H-imidazo [4,5-c]pyridin-6-yl)isoquinolin-3-yl)-N-(3-(3-(2,6-dioxopiperidin-3-yl)benzofuran-5-yl)prop-2-yn-1-yl)picolinamide]
7 | > 80 | 1 to 9.9 | [2H]C([2H])([2H])N(c1cnc(-c2cnc(C(=O)NCC#Cc3ccc4occ(C5CCC(=O)NC5=O)c4c3)c(C)c2)nc1)c1cc(C(C)C)c2c(c1)n(C)c(=O)n2C (stereo not shown) [Example A65, N-(3-(3-(2,6-dioxopiperidin-3-yl)benzofuran-5-yl)prop-2-yn-1-yl)-5-(5-((7-isopropyl-1,3-dimethyl-2-oxo-2,3-dihydro-1H-benzo [d]imidazol-5-yl)(methyl-d3)amino)pyrimidin-2-yl)-3-methylpicolinamide]
8 | > 80 | 1 to 9.9 | CCc1cc(N2CCOc3cc(-c4ccc(C(=O)NCC#Cc5ccc6occ(C7CCC(=O)NC7=O)c6c5)nc4)c(F)cc32)c2cc(C)c(=O)n(C)c2c1 (stereo not shown) [Example B149, N-(3-(3-(2,6-dioxopiperidin-3-yl)benzofuran-5-yl)prop-2-yn-1-yl)-5-(4-(7-ethyl-1,3-dimethyl-2-oxo-1,2-dihydroquinolin-5-yl)-6-fluoro-3,4-dihydro-2H-benzo[b][1,4]oxazin-7-yl)picolinamide]
9 | 20 to 39 | 1 to 9.9 | CCn1c(=O)n(C)c2ccc(N3CCOc4nc(-c5ccc(C(=O)NCC#Cc6ccc7occ(C8CCC(=O)NC8=O)c7c6)nc5)ncc43)cc21 (stereo not shown) [Example A143, N-(3-(3-(2,6-dioxo-piperidin-3-yl)benzofuran-5-yl)prop-2-yn-1-yl)-5-(5-(3-ethyl-1-methyl-2-oxo-2,3-dihydro-1H-benzo[d]imidazol-5-yl)-6,7-dihydro-5H-pyrimido[4,5-b] [1,4]oxazin-2-yl)picolinamide]
10 | > 80 | 1 to 9.9 | Cc1cc(N2CCN(C)c3nc(-c4ccc(C(=O)NCC#Cc5cc6c(C7CCC(=O)NC7=O)nccc6o5)nc4)ncc32)cc2c1n(C)c(=O)n2C (stereo not shown) [Example A220, N-(3-(4-(2,6-dioxo-piperidin-3-yl)furo[3,2-c]pyridin-2-yl)prop-2-yn-1-yl)-5-(8-methyl-5-(1,3,7-trimethyl-2-oxo-2,3-dihydro-1H-benzo [d]imidazol-5-yl)-5,6,7,8-tetrahydro-pteridin-2-yl)picolinamide]
11 | > 80 | 1 to 9.9 | Cc1cc(N2CCCc3nc(-c4ccc(C(=O)NCC#Cc5cc6c(C7CCC(=O)NC7=O)cccc6o5)nc4)ncc32)c2cc(C)c(=O)n(C)c2n1 (stereo not shown) [Example B118, N-(3-(4-(2,6-dioxopiperidin-3-yl)benzofuran-2-yl)prop-2-yn-1-yl)-5-(5-(2,6,8-trimethyl-7-oxo-7,8-dihydro-1,8-naphthyridin-4-yl)-5,6,7,8-tetrahydropyrido[3,2-d]pyrimidin-2-yl) picolinamide]
12 | < 20 | > 1000 | CCc1cc(-c2cccc3cc(-c4ccc(C(=O)NCC#Cc5ccc6c(c5)ncn6C5CCC(=O)NC5=O)nc4)ncc23)c2cc(C)c(=O)n(C)c2c1 (stereo not shown) [Example B12, N-(3-(1-(2,6-Dioxopiperidin-3-yl)-1H-benzo[d]imidazol-5-yl)prop-2-yn-1-yl)-5-(8-(7-ethyl-1,3-dimethyl-2-oxo-1,2-dihydroquinolin-5-yl)isoquinolin-3-yl)picolinamide]
13 | < 20 | > 1000 | Cc1cc2c(N3CCCc4nc(-c5ccc(C(=O)NCC#Cc6ccc7c(c6)N(C6CCC(=O)NC6=O)CCCC7)nc5)ncc43)cc(C3CCOCC3)cc2n(C)c1=O (stereo not shown) [Example B57, 5-(5-(1,3-dimethyl-2-oxo-7-(tetrahydro-2H-pyran-4-yl)-1,2-dihydroquinolin-5-yl)-5,6,7,8-tetrahydropyrido[3,2-d]pyrimidin-2-yl)-N-(3-(1-(2,6-dioxopiperidin-3-yl)-2,3,4,5-tetrahydro-1H-benzo[b]azepin-8-yl)prop-2-yn-1-yl) picolinamide]
14 | > 80 | < 1 | CN(c1cnc(-c2ccc(C(=O)NCC#Cc3cc4c(C5CCC(=O)NC5=O)cccc4o3)nc2)nc1)c1cc(C2CCOCC2)c2c(c1)n(C)c(=O)n2C (stereo not shown) [Example A229, 5-(5-((1,3-dimethyl-2-oxo-7-(tetrahydro-2H-pyran-4-yl)-2,3-dihydro-1H-benzo[d]imidazol-5-yl)(methyl)amino)pyrimidin-2-yl)-N-(3-(4-(2,6-dioxo-piperidin-3-yl)benzofuran-2-yl)prop-2-yn-1-yl)picolinamide]
15 | > 80 | 1 to 9.9 | COC1CN(c2cc3c(cc(C)c(=O)n3C)c(-c3cccc4cc(-c5ccc(C(=O)NCC#Cc6ccc7occ(C8CCC(=O)NC8=O)c7c6)nc5)ncc34)n2)C1 (stereo not shown) [Example B146, N-(3-(3-(2,6-dioxopiperidin-3-yl)benzofuran-5-yl)prop-2-yn-1-yl)-5-(8-(7-(3-methoxyazetidin-1-yl)-1,3-dimethyl-2-oxo-1,2-dihydro-1,6-naphthyridin-5-yl)isoquinolin-3-yl) picolinamide]
16 | > 80 | 1 to 9.9 | COc1cc(-c2ncc3c(n2)CCCN3c2cccc3c2cc(C)c(=O)n3C)cnc1C(=O)NCC#Cc1ccc2occ(C3CCC(=O)NC3=O)c2c1 (stereo not shown) [Example B50, 5-(5-(1,3-dimethyl-2-oxo-1,2-dihydroquinolin-5-yl)-5,6,7,8-tetrahydropyrido[3,2-d]pyrimidin-2-yl)-N-(3-(3-(2,6-dioxopiperidin-3-yl)benzofuran-5-yl)prop-2-yn-1-yl)-3-methoxypicolinamide]

Row | Compound | Dmax [%] | DC50 [nM]
17 | CN1C2CCC1CN(c1nc(-c3cccc4cc(-c5ccc(C(=O)NCC#Cc6ccc7occ(C8CCC(=O)NC8=O)c7c6)nc5)ncc34)cc3c1n(C)c(=O)n3C)C2 (stereo not shown) [Example A67, 5-(8-(1,3-dimethyl-4-(8-methyl-3,8-diazabicyclo[3.2.1]octan-3-yl)-2-oxo-2,3-dihydro-1H-imidazo [4,5-c]pyridin-6-yl)isoquinolin-3-yl)-N-(3-(3-(2,6-dioxopiperidin-3-yl)benzofuran-5-yl)prop-2-yn-1-yl)picolinamide] | 60 to 79 | 1 to 9.9
